# Article PMC8723806 (Journal of the Iranian Chemical Society, 2022)
# pIC50: −log10 of the molar value.
# Columns and labels:
# COX-2 = biological target: T1, COX-2 (Ovis aries, UniProt P79208); experiment: In vitro COX-2 inhibition, colorimetric enzyme immune assay; assay type: biochemical, ovine; details: for COX-2 inhibition, in words: compared with celecoxib; for COX-2 SI (COX-1 IC50/COX-2 IC50): in vitro COX-2 selectivity index
# T1 sequence (P79208 17-603): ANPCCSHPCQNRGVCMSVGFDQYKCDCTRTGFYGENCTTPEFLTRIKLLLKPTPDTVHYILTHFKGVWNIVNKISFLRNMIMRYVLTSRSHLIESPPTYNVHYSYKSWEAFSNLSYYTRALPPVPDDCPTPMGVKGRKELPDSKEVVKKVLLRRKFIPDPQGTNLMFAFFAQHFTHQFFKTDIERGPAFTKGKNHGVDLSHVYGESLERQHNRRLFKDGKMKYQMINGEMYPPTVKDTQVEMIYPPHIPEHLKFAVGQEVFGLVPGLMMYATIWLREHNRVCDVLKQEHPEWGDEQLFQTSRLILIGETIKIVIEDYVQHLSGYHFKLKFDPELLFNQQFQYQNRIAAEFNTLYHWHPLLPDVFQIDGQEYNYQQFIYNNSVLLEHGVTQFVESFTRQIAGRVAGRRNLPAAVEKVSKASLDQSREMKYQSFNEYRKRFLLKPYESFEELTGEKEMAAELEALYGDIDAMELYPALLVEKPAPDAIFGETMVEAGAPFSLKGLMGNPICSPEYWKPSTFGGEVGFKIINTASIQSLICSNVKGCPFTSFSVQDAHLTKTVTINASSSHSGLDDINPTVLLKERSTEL
# COX-1 = biological target: T2, COX-1 (Ovis aries, UniProt P05979); experiment: In vitro COX-1 inhibition, colorimetric enzyme immune assay; assay type: biochemical, ovine
# T2 sequence (P05979 25-600): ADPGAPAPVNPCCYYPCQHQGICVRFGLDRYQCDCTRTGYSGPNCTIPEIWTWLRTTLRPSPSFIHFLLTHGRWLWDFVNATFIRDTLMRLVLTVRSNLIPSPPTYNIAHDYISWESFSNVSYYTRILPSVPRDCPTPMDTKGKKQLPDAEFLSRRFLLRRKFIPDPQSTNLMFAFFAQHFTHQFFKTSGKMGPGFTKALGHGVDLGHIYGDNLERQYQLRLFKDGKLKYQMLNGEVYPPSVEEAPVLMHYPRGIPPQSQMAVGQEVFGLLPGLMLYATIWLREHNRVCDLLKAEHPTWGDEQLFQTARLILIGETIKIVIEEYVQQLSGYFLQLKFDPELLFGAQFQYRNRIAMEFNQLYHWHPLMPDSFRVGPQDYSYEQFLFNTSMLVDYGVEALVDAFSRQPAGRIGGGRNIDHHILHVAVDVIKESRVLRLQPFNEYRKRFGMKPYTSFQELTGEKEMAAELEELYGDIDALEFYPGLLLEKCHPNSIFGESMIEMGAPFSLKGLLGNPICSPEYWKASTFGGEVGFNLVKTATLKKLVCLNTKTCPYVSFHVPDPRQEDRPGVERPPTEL
Structure (SMILES),"COX-2 inhibition, in words (COX-2)",COX-2 SI (COX-1 IC50/COX-2 IC50) (COX-2),pIC50 (COX-1)
"COc1ccccc1-c1cccc([N+](=O)[O-])c1F [Compound 3i, 2-Fluoro-2'-methoxy-3-nitrobiphenyl]",less potency,54.94,–
"O=[N+]([O-])c1ccc(-c2ccccc2F)cc1 [Compound 3a, 2-Fluoro-4'-nitrobiphenyl]",–,84.16,–
"COc1ccc(F)c(-c2ccccc2OC)c1 [Compound 3j, 2-Fluoro-2',5-dimethoxybiphenyl]",less potency,–,–
"COc1ccccc1-c1ccc(F)c(C(F)(F)F)c1 [Compound 3g, 4'-Fluoro-2-methoxy-3'-(trifluoromethyl)biphenyl]",–,76.84,–
"Fc1ccc(-c2ccccc2F)cc1OC(F)(F)F [Compound 3c, 2,4'-Difluoro-3'-(trifluoromethoxy)biphenyl]",–,109.9,–
"O=[N+]([O-])c1cccc(-c2ccccc2F)c1F [Compound 3d, 2,2'-Difluoro-3-nitrobiphenyl]",–,68.06,–
"Fc1ccccc1-c1ccc(F)c(C(F)(F)F)c1 [Compound 3b, 2,4'-Difluoro-3'-(trifluoromethyl) biphenyl]",–,101.99,4.95
"COc1ccccc1-c1ccc([N+](=O)[O-])cc1 [Compound 3f, 2-Methoxy-4'-nitrobiphenyl]",less potency,32.55,–
"COc1ccccc1-c1ccc(F)c(OC(F)(F)F)c1 [Compound 3h, 4'-Fluoro-2-methoxy-3'-(trifluoromethoxy)biphenyl]",–,67.31,–
